# Reference: patent EP1029544A1, “INTRA-CANCER-CELL NUCLEASE ACTIVATOR” (Nippon Shinyaku Co., Ltd., priority 1997, dated 1999)
# Experiments:
# Experiment in all cases: Growth inhibitory effect (in vitro), MTT method
# Type in all cases: cell-based
# OVCAR3 = details: Homo sapiens, OVCAR-3, 72 h; OVCAR3, Ovary adenocarcinoma; 3 days
# Method: (§1) A 96-well plate was seeded with cells at a density of 10^4 cells/well. On the following day, the activator of Example 4 or adriamycin was added and the cultivation was continued. After 3 days the viable cell count was determined by the MTT method.
# SK-OV-3 = details: Homo sapiens, 72 h; SK-OV-3, Ovary adenocarcinoma; 3 days
# Method: as §1
# PLC/PRF/5 = details: Homo sapiens, 72 h; PLC/PRF/5, Hepatoma; 3 days
# Method: as §1
# AsPC-1 = details: Homo sapiens, ASPC1, 72 h; AsPC-1, Pancreatic adenocarcinoma; 3 days
# Method: as §1
# MDA-MB-468 = details: Homo sapiens, 72 h; MDA-MB-468, Breast adenocarcinoma; 3 days
# Method: as §1
# Clone9 = details: 72 h; Clone9, Rat normal liver cell (non-cancer); 3 days
# Method: as §1
# RD = details: Homo sapiens, 72 h, Rhabdomyosarcoma, 3 days
# Method: as §1
# Swiss/3T3 = details: 72 h; Swiss/3T3, Mouse embryonic cell (non-cancer); 3 days
# Method: as §1
# PC-3 = details: Homo sapiens, 72 h; PC-3, Prostate adenocarcinoma; 3 days
# Method: as §1
# BNL CL.2 = details: 72 h; BNL CL.2, Mouse normal liver cell (non-cancer); 3 days
# Method: as §1
# KM12-HX = details: Homo sapiens, 72 h, Colon cancer, 3 days
# Method: as §1
# NIH/3T3 = details: NIH3T3, 72 h; NIH/3T3, Mouse embryonic cell (non-cancer); 3 days
# Method: as §1
# WRL68 = details: 72 h; WRL68, Human embryo liver cell (non-cancer); 3 days
# Method: as §1
# HeLaS3 = details: Homo sapiens, HeLa S3, 72 h; HeLaS3, Cervix epitheloid carcinoma; 3 days
# Method: as §1
# RT4 = details: Homo sapiens, RT-4, 72 h; RT4, Bladder papillima; 3 days
# Method: as §1
# Ls174T = details: Homo sapiens, 72 h, Colon adenocarcinoma, 3 days
# Method: as §1
# SW480 = details: Homo sapiens, 72 h; SW480, Colon adenocarcinoma; 3 days
# Method: as §1
# McA-8994 = details: 72 h; McA-8994, Rat hepatoma; 3 days
# Method: as §1
# Hs0578T = details: 72 h, Breast ductal carcinoma, 3 days
# Method: as §1
# Malme 3M = details: Homo sapiens, 72 h, Malignant melanoma, 3 days
# Method: as §1
# SK-HEP-1 = details: Homo sapiens, SK-HEP1, 72 h; SK-HEP-1, Liver adenocarcinoma; 3 days
# Method: as §1
# SAOS2 = details: Homo sapiens, SAOS-2, 72 h; SAOS2, Osteogenic sarcoma; 3 days
# Method: as §1
# CHO-K1 = details: Cricetulus griseus, 72 h; CHO-K1, Chinese hamster ovary cell (non-cancer); 3 days
# Method: as §1
# NC65 = details: 72 h; NC65, Pancreatic cancer; 3 days
# Method: as §1
# BALB/c CL.7 = details: 72 h; BALB/c CL.7, Mouse normal fibroblast (non-cancer); 3 days
# Method: as §1
# BALB/c3T3 cloneA31 = details: 72 h; BALB/c3T3 cloneA31, Mouse embryonic cell (non-cancer); 3 days
# Method: as §1
# A431 = details: Homo sapiens, A-431, 72 h; A431, Epidemoid carcinoma; 3 days
# Method: as §1
# DU145 = details: Homo sapiens, DU-145, 72 h; DU145, Prostate carcinoma; 3 days
# Method: as §1
# SK-BR-3 = details: Homo sapiens, 72 h; SK-BR-3, Breast adenocarcinoma; 3 days
# Method: as §1
# BHK-21 = details: Mesocricetus auratus, 72 h; BHK-21, Hamster kidney cell (non-cancer); 3 days
# Method: as §1
# COLO320DM = details: Homo sapiens, COLO 320DM, 72 h, Colon adenocarcinoma, 3 days
# Method: as §1
# MDA-MB-134VI = details: Homo sapiens, 72 h, Breast ductal carcinoma, 3 days
# Method: as §1
# NRK-49F = details: 72 h, Rat normal kidney fibroblast (non-cancer), 3 days
# Method: as §1
# T47D = details: Homo sapiens, 72 h, Breast ductal carchoma, 3 days
# Method: as §1
# HCC-T = details: 72 h, Liver cancer, 3 days
# Method: as §1
# HT1376 = details: Homo sapiens, HT-1376, 72 h; HT1376, Bladder carcinoma; 3 days
# Method: as §1
# MDA-MB-453 = details: Homo sapiens, 72 h; MDA-MB-453, Breast carcinoma; 3 days
# Method: as §1
# LoVo = details: Homo sapiens, 72 h, Colon adenocarcinoma, 3 days
# Method: as §1
# G-361 = details: Homo sapiens, 72 h; G-361, Malignant melanoma; 3 days
# Method: as §1
# KB = details: Homo sapiens, 72 h, Oral epidemiod carcinoma, 3 days
# Method: as §1
# A546 = details: 72 h; A546, Lung carcinoma; 3 days
# Method: as §1
# NCTCclone1469 = details: 72 h; NCTCclone1469, Mouse normal liver cell (non-cancer); 3 days
# Method: as §1
# WM-266-4 = details: Homo sapiens, 72 h; WM-266-4, Melanoma; 3 days
# Method: as §1
# HT144 = details: Homo sapiens, HT-144, 72 h; HT144, Malignant melanoma; 3 days
# Method: as §1
# TSU-PR-1 = details: Homo sapiens, TSU-Pr1, 72 h; TSU-PR-1, Prostate cancer; 3 days
# Method: as §1
# A673 = details: Homo sapiens, 72 h; A673, Rhabdomyosarcoma; 3 days
# Method: as §1
# A-204 = details: Homo sapiens, A204, 72 h; A-204, Rhabdomyosarcoma; 3 days
# Method: as §1
# CALU6 = details: Homo sapiens, Calu-6, 72 h; CALU6, Lung anaplastic carcinoma; 3 days
# Method: as §1
structure (smiles),measurement,setting,value
COc1cccc2c1C(=O)c1c(O)c3c(c(O)c1C2=O)C[C@@](O)(C(=O)CO)C[C@@H]3O[C@H]1C[C@H](N)[C@H](O)[C@H](C)O1 [Adriamycin],IC50,OVCAR3,> 1 µg/mL
same,IC50,SK-OV-3,0.252 µg/mL
same,IC50,PLC/PRF/5,0.042 µg/mL
same,IC50,AsPC-1,0.8 µg/mL
same,IC50,MDA-MB-468,0.057 µg/mL
same,IC50,Clone9,0.228 µg/mL
same,IC50,RD,0.208 µg/mL
same,IC50,Swiss/3T3,0.903 µg/mL
same,IC50,PC-3,> 1 µg/mL
same,IC50,BNL CL.2,0.398 µg/mL
same,IC50,KM12-HX,0.13 µg/mL
same,IC50,NIH/3T3,0.102 µg/mL
same,IC50,WRL68,0.283 µg/mL
same,IC50,HeLaS3,0.049 µg/mL
same,IC50,RT4,0.058 µg/mL
same,IC50,Ls174T,0.096 µg/mL
same,IC50,SW480,0.097 µg/mL
same,IC50,McA-8994,> 1 µg/mL
same,IC50,Hs0578T,0.76 µg/mL
same,IC50,Malme 3M,0.114 µg/mL
same,IC50,SK-HEP-1,0.302 µg/mL
same,IC50,SAOS2,0.075 µg/mL
same,IC50,CHO-K1,0.02 µg/mL
same,IC50,NC65,0.073 µg/mL
same,IC50,BALB/c CL.7,0.117 µg/mL
same,IC50,BALB/c3T3 cloneA31,0.427 µg/mL
same,IC50,A431,0.052 µg/mL
same,IC50,DU145,0.236 µg/mL
same,IC50,SK-BR-3,0.078 µg/mL
same,IC50,BHK-21,0.047 µg/mL
same,IC50,COLO320DM,0.838 µg/mL
same,IC50,MDA-MB-134VI,0.081 µg/mL
same,IC50,NRK-49F,> 1 µg/mL
same,IC50,T47D,0.114 µg/mL
same,IC50,HCC-T,0.076 µg/mL
same,IC50,HT1376,0.217 µg/mL
same,IC50,MDA-MB-453,0.143 µg/mL
same,IC50,LoVo,0.065 µg/mL
same,IC50,G-361,0.146 µg/mL
same,IC50,KB,0.025 µg/mL
same,IC50,A546,0.831 µg/mL
same,IC50,NCTCclone1469,0.101 µg/mL
same,IC50,WM-266-4,0.206 µg/mL
same,IC50,HT144,0.219 µg/mL
same,IC50,TSU-PR-1,0.572 µg/mL
same,IC50,A673,0.104 µg/mL
same,IC50,A-204,0.076 µg/mL
same,IC50,CALU6,0.282 µg/mL
